Experiments:
[1] = Pharmacokinetic study in SD rats after intravenous administration (plasma, LC-MS/MS); type: in vivo, Spague-Dawley rats; settings: for AUC0-∞ / AUC0–t / C5min: rat plasma; for C5min: n = 6; for CL/F / V/F / t1/2: rat
Experimental: (§1) The analyte of GC20 in rat biological samples was extracted using one-step protein precipitation. 50 μL of rat plasma or rat tissue homogenate was treated with 250 μL methanol containing IS (375 ng/mL). Vortex for 5 min to completely precipitate the proteins contained in the biological matrix. The mixture was then centrifuged at 18,000 rpm for 10 min (Sorvall Biofuge Stratos, Waltham, MA, USA), and 5 μL supernatant was injected for analysis.
Twenty-four Spague-Dawley rats (twelve male and twelve female, 6–8 weeks old) were purchased from Shanghai SLAC Laboratory Animal Co., Ltd. (Shanghai, China). Animals were housed in an environment which controlled room temperature at 22 ± 2 °C and humidity at 55 ± 5%. Animals received 12/12 h light/dark cycle. Prior to the experiment, animals were fed a standard diet for one week to adapt to the laboratory conditions. Animal welfare and experimental procedures were strictly in accordance with the Guidelines of Animal Experiments of China Pharmaceutical University (Nanjing, China) and approved by the Animal Ethics Committee.
All rats were randomly divided into four groups, each group of six (three male and three female in each group). Three groups consisted of rats that received a single intravenous administration of GC20 at a single dose of 1, 2 or 4 mg/kg, while the fourth group consisted of rats that received a dose of 2 mg/kg on seven consecutive days. The doses for single administration was determined according to the pharmacodynamic doses and toxic doses of GC20 in animals reported in the literature. The dose for multiple administrations was selected from the intermediate dose of a single administration. Dose solutions were prepared with 10% glucose solution. Before administration, rats fasted for 12 h. Blood samples (150 μL) were collected into tubes containing heparin (as an anticoagulant) via the ophthalmic veins at 0 min (i.e., before dosing), 5 min, 10 min, 15 min, 30 min, 1 h, 2 h, 4 h, 6 h, 8 h, 12 h, 24 h, 36 h, 48 h and 72 h. Then, the tubes were centrifuged at 8000 rpm for 5 min to separate the plasma. Plasma samples were then stored at −80 °C until further analysis. The pharmacokinetic parameters were calculated by Phoenix WinNonlin 6.0 (Pharsight, Mountain View, CA, USA).

[2] = Tissue distribution in rats after single intravenous administration; type: in vivo, SD rats; settings: single i.v. 2 mg/kg
Experimental: as §1
Eighteen SD rats (nine male and nine female, 6–8 weeks old) were purchased from Shanghai SLAC Laboratory Animal Co., Ltd. (Shanghai, China). After one week of adaptation, all rats were randomly divided into three groups, each group of six (three male and three female in each group). All rats were administrated GC20 solution at a single dose of 2 mg/kg vial the tail vein. The administered dose for tissue distribution was selected from the intermediate dose of single administration in the pharmacokinetic study. Blood samples were first collected via the ophthalmic veins and then rats were sacrificed to harvest tissues (i.e., heart, liver, spleen, lungs, kidneys, stomach, small intestine, brain, skin, muscle, fat, testes/ovaries, pancreas, thymus, and leg bones) promptly at 10 min, 2 h, or 12 h after dosing. To eliminate blood and other content, the tissues were thoroughly rinsed in water. Each tissue sample was homogenized into ten-fold volumes of water and then stored at −80 °C until further analysis.

[3] = Stability of GC20 in rat plasma under different storage conditions; type: in vitro ADME; settings: for Measured Concentration: n = 6
Experimental: Extraction recovery was calculated by comparing the peak areas of extraction samples and post-extraction spiked samples. Matrix effect was evaluated by comparing the peak areas of post-extraction spiked samples and pure standard solutions. Post-extraction spiked samples were prepared as follows: Adding standard working solution into the mixed solution after protein precipitation of blank plasma to yield equivalent concentrations to corresponding extraction samples. Six replicates at three concentration levels were used for stability validation under a variety of storage and handling conditions. Samples were subjected to three freeze-thaw cycles, frozen at −80 °C for 7 days and 60 days, and storing at room temperature for 12 h. Post-preparative stability was evaluated by reanalyzing post-extraction samples kept in the autosampler at 4 °C for 48 h.

[4] = test system: broad spectrum of cancer cell lines, including cisplatin-resistant ones; set-up: method as in PMID 23362983; settings: cited from earlier work
[5] = set-up: method as in PMID 23362983; settings: cited from earlier work
[6] = multiple dose i.v. 2 mg/kg on seven consecutive days
[7] = post-extraction samples, autosampler 48 h at 4 °C, spiked 50 ng/mL
[8] = post-extraction samples, autosampler 48 h at 4 °C, spiked 1000 ng/mL
[9] = rat plasma, frozen (−80 °C) for 7 days, spiked 50 ng/mL
[10] = rat plasma, frozen (−80 °C) for 7 days, spiked 1000 ng/mL
[11] = rat plasma, frozen (−80 °C) for 60 days, spiked 2 ng/mL
[12] = rat plasma, frozen (−80 °C) for 60 days, spiked 50 ng/mL
[13] = rat plasma, frozen (−80 °C) for 60 days, spiked 1000 ng/mL
[14] = rat plasma, room temperature for 12 h, spiked 2 ng/mL
[15] = rat plasma, room temperature for 12 h, spiked 50 ng/mL
[16] = rat plasma, room temperature for 12 h, spiked 1000 ng/mL
[17] = rat plasma, three freeze-thaw cycles, spiked 2 ng/mL
[18] = rat plasma, three freeze-thaw cycles, spiked 50 ng/mL
[19] = rat plasma, three freeze-thaw cycles, spiked 1000 ng/mL

CC(C)(C)[P+]1(C)c2nc3ccccc3nc2[P+](C)(C(C)(C)C)[Au-3]12[P+](C)(C(C)(C)C)c1nc3ccccc3nc1[P+]2(C)C(C)(C)C (centres unmarked) [GC20, Bis(2,3-bis(tert-butylmethylphosphino)quinoxaline)aurate(I)]
AUC0-∞ [1, 6]: 6936.7 ± 1005.4 ng·h/mL | AUC0–t ([1]; multiple dose i.v. 2 mg/kg on seven consecutive days, 0–24 h): 4551.2 ± 440.3 ^# h*ng/mL | C5min [1, 6]: 3645.8 ± 388.3 ng/mL | AUC0-∞ ([1]; single dose i.v. 1 mg/kg): 1457.0 ± 354.5 ng·h/mL | AUC0–t ([1]; single dose i.v. 1 mg/kg, 0–72 h): 1419.9 ± 345.5 ng·h/mL | C5min ([1]; single dose i.v. 1 mg/kg): 1564.6 ± 387.5 ng/mL | AUC0-∞ ([1]; single dose i.v. 2 mg/kg): 2540.5 ± 308.6 ng·h/mL | AUC0–t ([1]; single dose i.v. 2 mg/kg, 0–72 h): 2466.4 ± 298.3 ng·h/mL | C5min ([1]; single dose i.v. 2 mg/kg): 2657.6 ± 632.7 ng/mL | AUC0-∞ ([1]; single dose i.v. 4 mg/kg): 7562.2 ± 2709.6 ng·h/mL | AUC0–t ([1]; single dose i.v. 4 mg/kg, 0–72 h): 7237.1 ± 2695.0 ng·h/mL | C5min ([1]; single dose i.v. 4 mg/kg): 5902.6 ± 1955.2 ng/mL | CL/F [1, 6]: 4.83 ± 0.67 mL/min/kg | V/F [1, 6]: 10.6 ± 1.7 L/kg | t1/2 [1, 6]: 25.1 ± 3.0 h | CL/F ([1]; single dose i.v. 1 mg/kg): 12 ± 3.17 mL/min/kg | V/F ([1]; single dose i.v. 1 mg/kg): 11.89 ± 3.35 L/kg | t1/2 ([1]; single dose i.v. 1 mg/kg): 11.33 ± 0.57 h | CL/F ([1]; single dose i.v. 2 mg/kg): 13.3 ± 1.67 mL/min/kg | V/F ([1]; single dose i.v. 2 mg/kg): 13.00 ± 2.39 L/kg | t1/2 ([1]; single dose i.v. 2 mg/kg): 11.24 ± 0.75 h | CL/F ([1]; single dose i.v. 4 mg/kg): 10 ± 4 mL/min/kg | V/F ([1]; single dose i.v. 4 mg/kg): 11.11 ± 5.28 L/kg | t1/2 ([1]; single dose i.v. 4 mg/kg): 12.58 ± 1.80 h | accumulation after multiple doses ([1]; rats, consecutive administration for 7 days): accumulated in rats after multiple doses | elimination half-life after multiple doses relative to single administration ([1]; rats, i.v. 2 mg/kg for 7 days vs single administration): twice that after a single administration | elimination half-life ([1]; rats, single administration of low, medium and high doses (i.v.)): 11 to 13 h | tissue with the lowest concentration ([2]; 10 min, 2 h, 12 h): lowest in the brain | tissues with the highest concentrations ([2]; 10 min, 2 h, 12 h): lung, spleen, liver, and pancreas | time of highest tissue concentration ([2]; spleen, liver, kidney and heart): 2 h | Measured Concentration ([3]; post-extraction samples, autosampler 48 h at 4 °C, spiked 2 ng/mL): 1.8 ± 0.0 ng/mL | Accuracy (RE%) [3, 7]: −9.5% | Measured Concentration [3, 7]: 45.2 ± 0.1 ng/mL | Accuracy (RE%) [3, 8]: −9.9% | Measured Concentration [3, 8]: 901.3 ± 17.1 ng/mL | Accuracy (RE%) ([3]; rat plasma, frozen (−80 °C) for 7 days, spiked 2 ng/mL): 8.2% | Accuracy (RE%) [3, 9]: 4.1% | Measured Concentration [3, 9]: 52.0 ± 0.9 ng/mL | Accuracy (RE%) [3, 10]: 3.1% | Measured Concentration [3, 10]: 1030.5 ± 15.9 ng/mL | Accuracy (RE%) [3, 11]: −8.9% | Measured Concentration [3, 11]: 1.8 ± 0.1 ng/mL | Accuracy (RE%) [3, 12]: −5.4% | Measured Concentration [3, 12]: 47.3 ± 0.6 ng/mL | Accuracy (RE%) [3, 13]: −3.0% | Measured Concentration [3, 13]: 970.1 ± 27.3 ng/mL | Accuracy (RE%) [3, 14]: −9.2% | Measured Concentration [3, 14]: 1.8 ± 0.1 ng/mL | Accuracy (RE%) [3, 15]: 2.0% | Measured Concentration [3, 15]: 51.0 ± 0.4 ng/mL | Accuracy (RE%) [3, 16]: 2.1% | Measured Concentration [3, 16]: 1020.7 ± 23.6 ng/mL | Accuracy (RE%) [3, 17]: 8.7% | Measured Concentration [3, 17]: 2.2 ± 0.1 ng/mL | Accuracy (RE%) [3, 18]: 2.3% | Measured Concentration [3, 18]: 51.1 ± 0.3 ng/mL | Accuracy (RE%) [3, 19]: 0.2% | Measured Concentration [3, 19]: 1001.8 ± 19.0 ng/mL | stability under typical sample storage and processing conditions ([3]; rat plasma, room temperature 12 h, −80 °C 7 and 60 days, three freeze-thaw cycles, autosampler 4 °C 48 h): stable | inhibitory effect on proliferation ([4]; broad spectrum of cancer cell lines, including cisplatin-resistant ones): strong inhibitory effect | selectivity between cancer cells and normal cells [4]: remarkable selectivity | toxicity in animal models as compared to cisplatin [5]: lower toxicity

Reference: PMC6600414, “Pharmacokinetics and Tissue Distribution of a Novel Bis-Chelated Gold(I) Diphosphine Compound, Bis(2,3-bis(tert-butylmethylphosphino)Quinoxaline)Aurate(I), in Rats” (Molecules, 2019)
